Test results taken from patent US9247759B2, “Identification of human T2R receptors that respond to bitter compounds that elicit the bitter taste in compositions, and the use thereof in assays to identify compounds that inhibit (block) bitter taste in compositions and use thereof” (SENOMYX, INC., priority 2007, dated 2016).
Where two headings read alike, the source gives them in different places.

What was measured:
hT2R71 = hT2R71 (Homo sapiens (Human), UniProt P59536); assay: hT2R panel inhibition, transient HEK293 G16g44, agonist Picric Acid 10 μM; type: cell-based; settings: HEK293, compound at 25 μM
Description: (§1) Specifically, in order to evaluate the inhibitory selectivity of the Compound C compound, this compound was tested against 22 human T2Rs which were deorphaned by Senomyx. These receptors and the bitter ligands that activate these human T2Rs are reported in earlier patent applications which are incorporated by reference herein. These 22 human T2Rs are hT2R1, 3, 4, 5, 7, 8, 9, 10, 13, 14, 16, 44, 51, 54, 55, 61, 63, 64, 65, 67, 71 and 75. The amino acid and nucleic acid sequences of all of these T2Rs may be found in these earlier patent applications. These human T2Rs were each individually transiently transfected into HEK293 cells that stably express the promiscuous G protein G16g44 and functional assays were effected using these receptors as disclosed in these same patent applications. […] The ligands were used at EC80 concentration levels. The list of bitter ligands utilized and the tested ligand concentrations are contained in Table 5 of this example.
(§2) Relating to the foregoing, FIG. 5 contains experimental results wherein Compound C was tested with different agonist compounds. The inhibition activity is represented by the reduction of receptor activity in the presence of Compound C. […] These 13 hT2Rs are hT2R3, 7, 10, 14, 16, 44, 51, 55, 61, 63, 64, 65, and 71.

hT2R16 = hT2R16 (Homo sapiens (Human), UniProt Q9NYV7); assay: hT2R panel inhibition, transient HEK293 G16g44, agonist Salicin 1 mM; type: cell-based; settings: HEK293, compound at 25 μM; receptor activated to EC80 with the corresponding agonist; read-out: screening result against bitter receptor 16
Description: as §1, §2

hT2R61 = hT2R61 (Homo sapiens (Human), UniProt P59537); assay: hT2R panel inhibition, transient HEK293 G16g44, agonist Aristolochic Acid 25 nM; type: cell-based; settings: HEK293, compound at 25 μM
Description: as §1, §2

hT2R44 = assay: hT2R panel inhibition, transient HEK293 G16g44, agonist Denatonium 0.5 μM; type: cell-based, human; settings: compound at 25 μM; for screening result against bitter receptor 44: receptor activated to EC80 with the corresponding agonist
Description: as §1, §2

hT2R14 [1] = target: T1, hT2R14 (Homo sapiens (Human), UniProt Q9NYV8); assay: hT2R14 antagonist high-throughput FLIPR assay, stable cell line with G16g44, agonist aristolochic acid; type: cell-based
Procedure, shortened: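 HEK293 cells stably expressing hT2R14 with chimeric G16g44 were stimulated with aristolochic acid (3 μM), giving 70-80% of maximal receptor activity. Test compounds were added together with the agonist, and antagonism was read as fluorescent calcium signal on FLIPR.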

hT2R63 = assay: hT2R panel inhibition, transient HEK293 G16g44, agonist Caffeine 1 mM or Andrographolide 100 μM; type: cell-based, human; settings: compound at 25 μM; for screening result against bitter receptor 63: receptor activated to EC80 with the corresponding agonist
Description: as §1, §2

hT2R7 = hT2R7 (Homo sapiens (Human), UniProt Q9NYW3); assay: hT2R panel inhibition, transient HEK293 G16g44, agonist Chloroquine pH6.5 10 mM; type: cell-based; settings: HEK293, compound at 25 μM; receptor activated to EC80 with the corresponding agonist; read-out: screening result against bitter receptor 7
Description: as §1, §2

hT2R65 = assay: hT2R panel inhibition, transient HEK293 G16g44, agonist Oleuropein 1 mM; type: cell-based, human; settings: compound at 25 μM; for screening result against bitter receptor 65: receptor activated to EC80 with the corresponding agonist
Description: as §1, §2

hT2R67 = assay: hT2R panel inhibition, transient HEK293 G16g44, agonist Andrographolide 5 μM; type: cell-based, human; settings: compound at 25 μM; receptor activated to EC80 with the corresponding agonist
Description: as §1, §2

hT2R55 = assay: hT2R panel inhibition, transient HEK293 G16g44, agonist Cinchonine 150 μM; type: cell-based, human; settings: compound at 25 μM; for screening result against bitter receptor 55: receptor activated to EC80 with the corresponding agonist
Description: as §1, §2

hT2R14 [2] = target: T1, hT2R14; assay: hT2R panel inhibition, transient HEK293 G16g44, agonist Aristolochic Acid 2 μM; type: cell-based; settings: HEK293, compound at 25 μM
Description: as §1

hT2R3 = hT2R3 (Homo sapiens (Human), UniProt Q9NYW6); assay: hT2R panel inhibition, transient HEK293 G16g44, agonist Chloroquine pH6.5 50 μM; type: cell-based; settings: HEK293, compound at 25 μM; receptor activated to EC80 with the corresponding agonist; read-out: screening result against bitter receptor 3
Description: as §1, §2

hT2R5 = hT2R5 (Homo sapiens (Human), UniProt Q9NYW4); assay: hT2R panel inhibition, transient HEK293 G16g44, agonist Picoline 10 mM; type: cell-based; settings: HEK293, compound at 25 μM; receptor activated to EC80 with the corresponding agonist; read-out: screening result against bitter receptor 5
Description: as §1, §2

hT2R64 = hT2R64 (Homo sapiens (Human), UniProt P59538); assay: hT2R panel inhibition, transient HEK293 G16g44, agonist Aristolochic Acid 1 μM; type: cell-based; settings: HEK293, compound at 25 μM; receptor activated to EC80 with the corresponding agonist; read-out: screening result against bitter receptor 64
Description: as §1, §2

hT2R10 = hT2R10 (Homo sapiens (Human), UniProt Q9NYW0); assay: hT2R panel inhibition, transient HEK293 G16g44, agonist Strychnine 50 μM; type: cell-based; settings: HEK293, read-out: screening result against bitter receptor 10, compound at 25 μM; receptor activated to EC80 with the corresponding agonist
Description: as §1, §2

hT2R54 = assay: hT2R panel inhibition, transient HEK293 G16g44, agonist Ranitidine 5 mM; type: cell-based, human; settings: compound at 25 μM; receptor activated to EC80 with agonist
Description: as §1, §2

[3] = receptor activated to EC80 with the corresponding agonist, read-out: screening result against bitter receptor 71
[4] = receptor activated to EC80 with the corresponding agonist, read-out: screening result against bitter receptor 61
[5] = receptor activated to EC80 with the corresponding agonist, read-out: screening result against bitter receptor 14
[6] = receptor activated to EC80 with agonist
[7] = receptor activated to EC80 with agonist, read-out: inhibition of bitter receptor 14

Chain of hT2R5 (Q9NYW4 whole entry): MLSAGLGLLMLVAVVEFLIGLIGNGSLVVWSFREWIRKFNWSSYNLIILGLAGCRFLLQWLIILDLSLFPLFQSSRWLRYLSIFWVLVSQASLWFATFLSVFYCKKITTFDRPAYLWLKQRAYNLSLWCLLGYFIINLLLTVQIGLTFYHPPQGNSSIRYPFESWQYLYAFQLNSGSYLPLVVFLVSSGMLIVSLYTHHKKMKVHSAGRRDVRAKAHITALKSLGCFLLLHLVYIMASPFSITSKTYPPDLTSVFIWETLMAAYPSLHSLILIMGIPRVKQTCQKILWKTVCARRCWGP
Chain of hT2R16 (Q9NYV7 whole entry): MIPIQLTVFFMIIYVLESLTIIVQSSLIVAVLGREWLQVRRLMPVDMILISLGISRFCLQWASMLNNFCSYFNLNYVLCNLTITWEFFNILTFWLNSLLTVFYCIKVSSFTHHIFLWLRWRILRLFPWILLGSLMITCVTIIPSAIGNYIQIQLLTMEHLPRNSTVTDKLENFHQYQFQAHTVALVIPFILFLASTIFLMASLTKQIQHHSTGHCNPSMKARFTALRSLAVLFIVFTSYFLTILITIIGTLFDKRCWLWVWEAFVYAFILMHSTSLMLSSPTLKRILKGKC
Chain of hT2R64 (P59538 whole entry): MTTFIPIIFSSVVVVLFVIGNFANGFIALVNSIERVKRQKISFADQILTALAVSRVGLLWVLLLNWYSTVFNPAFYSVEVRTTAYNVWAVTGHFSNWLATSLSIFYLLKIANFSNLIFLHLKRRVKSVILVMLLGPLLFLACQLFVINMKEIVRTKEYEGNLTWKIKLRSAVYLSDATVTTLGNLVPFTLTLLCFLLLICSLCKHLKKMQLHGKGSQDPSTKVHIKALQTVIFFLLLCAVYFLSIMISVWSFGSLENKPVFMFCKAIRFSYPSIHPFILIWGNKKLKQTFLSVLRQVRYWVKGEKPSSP
Chain of hT2R61 (P59537 whole entry): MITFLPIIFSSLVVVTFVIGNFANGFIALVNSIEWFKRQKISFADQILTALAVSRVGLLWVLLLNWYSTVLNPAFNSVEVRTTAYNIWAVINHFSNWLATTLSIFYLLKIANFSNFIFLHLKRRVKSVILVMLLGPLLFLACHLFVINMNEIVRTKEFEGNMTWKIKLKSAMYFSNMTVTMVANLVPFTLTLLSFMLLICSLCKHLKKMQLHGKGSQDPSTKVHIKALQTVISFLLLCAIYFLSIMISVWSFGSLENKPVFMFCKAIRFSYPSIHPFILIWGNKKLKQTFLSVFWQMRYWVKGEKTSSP
Chain of hT2R3 (Q9NYW6 whole entry): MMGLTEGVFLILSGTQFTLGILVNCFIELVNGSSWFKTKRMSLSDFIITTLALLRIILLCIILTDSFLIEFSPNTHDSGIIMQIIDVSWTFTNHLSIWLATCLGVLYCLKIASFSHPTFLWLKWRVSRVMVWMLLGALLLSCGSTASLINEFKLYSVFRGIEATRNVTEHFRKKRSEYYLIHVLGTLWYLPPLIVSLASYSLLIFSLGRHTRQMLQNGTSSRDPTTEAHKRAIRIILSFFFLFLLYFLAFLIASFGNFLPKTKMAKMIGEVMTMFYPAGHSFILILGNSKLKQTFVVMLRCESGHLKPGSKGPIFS
Chain of hT2R7 (Q9NYW3 whole entry): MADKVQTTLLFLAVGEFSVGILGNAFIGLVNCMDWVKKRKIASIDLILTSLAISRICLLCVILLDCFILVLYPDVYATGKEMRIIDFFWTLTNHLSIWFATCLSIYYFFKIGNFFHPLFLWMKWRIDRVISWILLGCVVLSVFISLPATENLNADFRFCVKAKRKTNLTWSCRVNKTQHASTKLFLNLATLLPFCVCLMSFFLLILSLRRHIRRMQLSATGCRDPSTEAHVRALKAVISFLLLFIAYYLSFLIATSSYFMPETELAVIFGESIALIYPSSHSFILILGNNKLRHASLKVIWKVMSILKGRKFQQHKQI
Chain of hT2R71 (P59536 whole entry): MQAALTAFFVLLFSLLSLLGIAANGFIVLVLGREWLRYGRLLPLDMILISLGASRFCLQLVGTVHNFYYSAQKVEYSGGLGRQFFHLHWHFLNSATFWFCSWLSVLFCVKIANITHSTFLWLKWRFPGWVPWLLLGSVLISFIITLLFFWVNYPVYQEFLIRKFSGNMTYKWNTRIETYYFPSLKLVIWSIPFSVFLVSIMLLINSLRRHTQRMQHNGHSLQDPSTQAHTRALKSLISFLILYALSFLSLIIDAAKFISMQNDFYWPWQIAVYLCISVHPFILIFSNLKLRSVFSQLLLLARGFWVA
T1 sequence (Q9NYV8 whole entry): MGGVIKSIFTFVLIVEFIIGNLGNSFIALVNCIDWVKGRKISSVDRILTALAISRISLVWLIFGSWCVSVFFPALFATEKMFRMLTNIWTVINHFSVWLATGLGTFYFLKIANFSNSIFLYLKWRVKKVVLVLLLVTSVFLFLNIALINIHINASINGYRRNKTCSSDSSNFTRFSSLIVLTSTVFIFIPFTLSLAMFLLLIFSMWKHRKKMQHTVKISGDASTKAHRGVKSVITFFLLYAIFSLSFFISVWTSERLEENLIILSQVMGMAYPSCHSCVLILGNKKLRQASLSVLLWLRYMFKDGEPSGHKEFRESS
Chain of hT2R10 (Q9NYW0 whole entry): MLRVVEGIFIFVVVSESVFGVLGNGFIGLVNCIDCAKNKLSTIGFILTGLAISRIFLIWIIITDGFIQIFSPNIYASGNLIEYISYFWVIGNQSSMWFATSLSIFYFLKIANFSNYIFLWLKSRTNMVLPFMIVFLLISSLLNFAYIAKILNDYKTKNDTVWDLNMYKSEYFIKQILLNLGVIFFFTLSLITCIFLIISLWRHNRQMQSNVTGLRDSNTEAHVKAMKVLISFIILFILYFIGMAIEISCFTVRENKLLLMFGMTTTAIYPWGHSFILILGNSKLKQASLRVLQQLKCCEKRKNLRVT

SMILES	inhibition at 25 µM (hT2R71; [3]) [%]	inhibition at 25 µM (hT2R16) [%]	inhibition at 25 µM (hT2R61; [4]) [%]	screening result against bitter receptor 44 (hT2R44)	screening result against bitter receptor 63 (hT2R63)	inhibition at 25 µM (hT2R7) [%]	screening result against bitter receptor 65 (hT2R65)	screening result against bitter receptor 67 (hT2R67)	screening result against bitter receptor 55 (hT2R55)	inhibition at 25 µM (hT2R14 [2]; [5]) [%]	inhibition at 25 µM (hT2R3) [%]	inhibition at 25 µM (hT2R5) [%]	inhibition at 25 µM (hT2R64) [%]	further results
COc1ccc(CN(Cc2ccccc2)S(=O)(=O)c2ccc(-c3nn[nH]n3)cc2)cc1 [Example 5-46, N-benzyl-N-(4-methoxybenzyl)-4-(1H-tetrazol-5-yl)benzene-sulfonamide]	60 to 80	20 to 40	> 80	++ (40% to 60% inhibition = ++)	+++ (60% to 80% inhibition = +++)	20 to 40	++ (40% to 60% inhibition = ++)	++ (40% to 60% inhibition = ++)	+ (20% to 40% inhibition = +)	> 80	20 to 40	–	–	IC50 (hT2R14 [1]; read-out: IC50 on hT2R14 bitter receptor): 3670 nM
O=C(O)c1ccc(S(=O)(=O)NCc2ccco2)cc1 [Example 5-54, 4-(N-(furan-2-ylmethyl)sulfamoyl)benzoic acid]	–	–	–	–	–	–	–	+ (20% to 40% inhibition = +)	–	–	20 to 40	–	–	–
COc1ccc(CN(Cc2ccc(C)o2)S(=O)(=O)c2ccc(C(=O)O)cc2)cc1 [Example 5-63, 4-(N-(4-methoxybenzyl)-N-((5-methylfuran-2-yl)methyl)sulfamoyl)benzoic acid]	20 to 40	–	–	–	+++ (60% to 80% inhibition = +++)	–	–	+ (20% to 40% inhibition = +)	+++ (60% to 80% inhibition = +++)	–	20 to 40	20 to 40	40 to 60	–
COc1ccc(CN(Cc2ccccn2)S(=O)(=O)c2ccc(C(=O)O)cc2)cc1 [Example 5-87, 4-(N-(4-methoxybenzyl)-N-(pyridin-2-ylmethyl)sulfamoyl)benzoic acid]	–	–	40 to 60	–	+ (20% to 40% inhibition = +)	–	–	+ (20% to 40% inhibition = +)	–	–	–	–	20 to 40	–
COc1ccc(CN(Cc2cccnc2)S(=O)(=O)c2ccc(C(=O)O)cc2)cc1 [Example 5-88, 4-(N-(4-methoxybenzyl)-N-(pyridin-3-ylmethyl)sulfamoyl)benzoic acid]	20 to 40	–	40 to 60	+ (20% to 40% inhibition = +)	+++ (60% to 80% inhibition = +++)	–	–	+ (20% to 40% inhibition = +)	–	20 to 40	20 to 40	–	20 to 40	–
COc1ccc(CN(Cc2ccccc2)S(=O)(=O)c2ccc(C(=O)O)cc2)cn1 [Example 5-90, 4-(N-benzyl-N-((6-methoxypyridin-3-yl)methyl)sulfamoyl)benzoic acid]	60 to 80	20 to 40	> 80	+++ (60% to 80% inhibition = +++)	++++ (80% or greater inhibition = ++++)	60 to 80	++ (40% to 60% inhibition = ++)	–	+++ (60% to 80% inhibition = +++)	> 80	40 to 60	20 to 40	60 to 80	inhibition at 25 µM (hT2R10): 40 to 60%
N#Cc1ccccc1CN(Cc1ccccc1)S(=O)(=O)c1ccc(C(=O)O)cc1 [Example 5-92, 4-(N-benzyl-N-(2-cyanobenzyl)sulfamoyl)benzoic acid]	40 to 60	20 to 40	> 80	++++ (80% or greater inhibition = ++++)	++++ (80% or greater inhibition = ++++)	20 to 40	–	–	++++ (80% or greater inhibition = ++++)	> 80	20 to 40	20 to 40	> 80	inhibition at 25 µM (hT2R10): 20 to 40%
O=C(O)c1ccc(S(=O)(=O)N(Cc2ccccc2)Cc2ccc(O)cc2)cc1 [Example 5-99, 4-(N-benzyl-N-(4-hydroxybenzyl)sulfamoyl)benzoic acid]	60 to 80	20 to 40	> 80	+++ (60% to 80% inhibition = +++)	++++ (80% or greater inhibition = ++++)	20 to 40	++ (40% to 60% inhibition = ++)	++ (40% to 60% inhibition = ++)	+ (20% to 40% inhibition = +)	> 80	–	–	60 to 80	IC50 (hT2R14 [1]; Table C, read-out: hT2R14 IC50): 5210 nM
Cn1c(=O)c2cc(S(=O)(=O)Nc3ccc4c(c3)OCO4)ccc2n(C)c1=O [Example 6-5, N-(benzo[d][1,3]dioxol-5-yl)-1,3-dimethyl-2,4-dioxo-1,2,3,4-tetrahydroquinazoline-6-sulfonamide]	–	–	–	–	–	–	–	–	–	–	–	–	–	inhibition at 25 µM (hT2R71; receptor activated to EC80 with agonist, read-out: inhibition of bitter receptor 71): 60 to 80%; inhibition at 25 µM (hT2R61; receptor activated to EC80 with agonist, read-out: inhibition of bitter receptor 61): 20 to 40%; inhibition of bitter receptor 44 (hT2R44; [6]): ++ (40% to 60% inhibition = ++); IC50 (hT2R14 [1]; Table D, read-out: hT2R14 IC50): 264 nM; inhibition of bitter receptor 63 (hT2R63; [6]): ++++ (80% or greater inhibition = ++++); inhibition of bitter receptor 65 (hT2R65; [6]): ++ (40% to 60% inhibition = ++); inhibition at 25 µM (hT2R14 [2]; [7]): > 80%
Cn1c(=O)c2cc(S(=O)(=O)Nc3ccc4c(c3)OCCO4)ccc2n(C)c1=O [Example 6-6, N-(2,3-dihydrobenzo[b][1,4]dioxin-6-yl)-1,3-dimethyl-2,4-dioxo-1,2,3,4-tetrahydroquinazoline-6-sulfonamide]	–	–	–	–	–	–	–	–	–	–	–	–	–	inhibition of bitter receptor 54 (hT2R54): + (20% to 40% inhibition = +); IC50 (hT2R14 [1]; Table D, read-out: hT2R14 IC50): 706 nM; screening result against bitter receptor 55, printed as a number (meaning not defined) (hT2R55; receptor activated to EC80 with agonist, numeric cell): 210; inhibition at 25 µM (hT2R14 [2]; [7]): > 80%
